{
  "source": "paper PMC2572143",
  "about": "“Androgen Receptor Functional Analyses by High Throughput Imaging: Determination of Ligand, Cell Cycle, and Mutation-Specific Effects” (PLoS ONE, 2008)",
  "key": {"[1]": {"target": "T1, GFP-AR T877A (LNCaP mutation) (Homo sapiens, UniProt P10275, T878A)", "T1 construct": "expressed in transfected cells", "T1 sequence (P10275 1-920 T878A)": "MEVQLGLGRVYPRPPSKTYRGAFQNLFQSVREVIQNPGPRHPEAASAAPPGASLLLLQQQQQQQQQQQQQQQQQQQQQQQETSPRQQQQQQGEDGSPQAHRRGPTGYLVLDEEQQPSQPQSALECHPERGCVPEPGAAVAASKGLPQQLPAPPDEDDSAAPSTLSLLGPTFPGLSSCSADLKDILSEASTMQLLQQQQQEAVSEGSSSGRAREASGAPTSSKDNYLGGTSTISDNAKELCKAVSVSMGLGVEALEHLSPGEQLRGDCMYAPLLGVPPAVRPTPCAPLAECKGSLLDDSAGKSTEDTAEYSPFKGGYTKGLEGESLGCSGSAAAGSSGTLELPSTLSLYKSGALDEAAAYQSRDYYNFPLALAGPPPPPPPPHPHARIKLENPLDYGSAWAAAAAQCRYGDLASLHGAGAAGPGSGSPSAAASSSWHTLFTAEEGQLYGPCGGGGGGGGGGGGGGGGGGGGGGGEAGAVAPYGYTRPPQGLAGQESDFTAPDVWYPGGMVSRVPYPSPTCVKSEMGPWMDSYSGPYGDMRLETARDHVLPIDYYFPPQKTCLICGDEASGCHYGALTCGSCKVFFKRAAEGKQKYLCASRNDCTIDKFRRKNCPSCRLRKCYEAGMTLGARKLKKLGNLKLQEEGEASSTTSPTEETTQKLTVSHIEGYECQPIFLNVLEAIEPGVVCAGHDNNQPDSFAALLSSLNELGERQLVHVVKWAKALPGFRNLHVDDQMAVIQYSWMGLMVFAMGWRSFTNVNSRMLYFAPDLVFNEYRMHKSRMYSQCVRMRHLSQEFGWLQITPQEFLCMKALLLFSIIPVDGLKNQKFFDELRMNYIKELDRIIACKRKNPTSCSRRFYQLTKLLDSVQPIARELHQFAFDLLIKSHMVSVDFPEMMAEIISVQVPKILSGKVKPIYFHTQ", "test": "HT imaging multiplex assay, all measurements together, HeLa GFP-AR T877A", "type": "cell-based"}, "[2]": {"target": "T2, GFP-AR F764L (AIS mutation) (Homo sapiens, UniProt P10275, F765L)", "T2 construct": "expressed in transfected cells", "T2 sequence (P10275 1-920 F765L)": "T1 sequence (P10275 1-920 T878A) with F765L, A878T", "test": "HT imaging multiplex assay, all three parameters together, HeLa GFP-AR F764L", "type": "cell-based", "conditions": "read-out: maximal responses (three parameters), % of that observed with WT AR"}, "[3]": {"system": "HeLa GFP-AR cells", "test": "Cell cycle analysis by DNA content (DAPI)/EdU incorporation in unsynchronized cells", "type": "cell-based, human", "conditions": "for EC50: Homo sapiens, HeLa, 18 h", "description": "To perform these studies, we simplified the HCS cell cycle analysis techniques described by Gesparri et al. to a DNA content (DAPI)/EdU incorporation biparametric analysis to identify G1, S phase, and G2 cells in unsynchronized growing cells (Fig. 6A). Cells were prepared as normal except with a brief 30 minute exposure to 10 µM EdU, which will incorporate into newly synthesized DNA similar to BrdU, prior to fixation. During image analysis, total nuclear DAPI signal (DNA) and mean nuclear EdU signal from each cell was quantified and used to determine cell cycle.\nFor experiments in which cell cycle effects were determined, cells were labeled using an Invitrogen Click-iT cell cycle analysis kit using supplied protocols. Prior to fixation, cells were exposed to 10 µM EdU for 30 minutes. Cells with EdU incorporation were labeled by an EdU specific antibody conjugated to an A647 florescent marker. Because the Click-iT labeling decreases GFP signal intensity, AR was labeled using an Anti-AR antibody (Dr. Nancy Weigel) and A488 secondary antibody (Molecular Probes)."}, "[4]": {"target": "T3, GFP-AR (wild type androgen receptor) (Homo sapiens, UniProt P10275)", "T3 sequence (P10275 1-920)": "T1 sequence (P10275 1-920 T878A) with A878T", "test": "HT imaging: AR nuclear translocation (FLIN) in stable HeLa GFP-AR cells", "excerpt": "(§1) In general, 49 images were captured per well for image analysis."}, "[5]": {"target": "T3, GFP-AR (wild type androgen receptor)", "test": "HT imaging multiplex assay, all three parameters together (FLIN, NVAR, CORR2), HeLa GFP-AR", "excerpt": "as §1"}, "[6]": {"target": "T3, GFP-AR (wild type androgen receptor)", "test": "HT imaging: pARR2PB-dsRED2skl transcriptional reporter gene activity (CORR2) in stable HeLa GFP-AR cells", "type": "cell-based", "design": "expressed in transfected cells", "text": "Cells were imaged in PBS."}, "[7]": {"target": "T3, GFP-AR (wild type androgen receptor)", "test": "HT imaging: AR nuclear hyperspeckling (NVAR) in stable HeLa GFP-AR cells", "excerpt": "as §1"}},
  "note": "Substitutions are numbered along the chain they refer to. Read-outs that look alike come from different tables or passages of the source.",
  "data": [
    {"smiles": "C[C@@H]1CC2=CC(=O)CC[C@@H]2[C@H]2CC[C@@]3(C)[C@@H](CC[C@]3(C)O)[C@@H]21", "note": "[Mibolerone, mibolerone]", "values": [
      {"measurement": "difference of results from those observed with WT-AR", "setting": "[1]; compound alone", "result": "≤ 1", "unit": "%"},
      {"measurement": "Emax", "setting": "[2]", "result": "85 to 105", "unit": "%"}
    ]},
    {"smiles": "C[C@]1(O)CC[C@H]2[C@@H]3CCC4=CC(=O)CCC4=C3C=C[C@@]21C", "note": "[R1881, Methyltrienolone]", "values": [
      {"measurement": "difference of results from those observed with WT-AR", "setting": "[1]", "result": "≤ 1", "unit": "%"},
      {"measurement": "Emax", "setting": "[2]", "result": "40 to 60", "unit": "%"},
      {"measurement": "S % (I + II)", "setting": "[3]; 100 nM, untreated control 42.6", "result": 0.7, "unit": "%"},
      {"measurement": "EC50", "setting": "[3]; read-out: EC50 of G1/S block", "result": "0.1 ± 0.03", "unit": "nM"},
      {"measurement": "EC50", "setting": "[3]; read-out: EC50 of reduction in S-phase cells", "result": "0.07 ± 0.02", "unit": "nM"},
      {"measurement": "cells with a majority of the GFP signal in the nucleus", "setting": "[4]", "result": "95–97%"},
      {"measurement": "more AR in the nucleus in G2 cells compared to G1 cells", "setting": "[4]", "result": "8–12%"},
      {"measurement": "time AR distribution remained nuclear after ligand pulse", "setting": "[4]", "result": "up to 15 hr"},
      {"measurement": "concentration at which saturation of response is observed", "setting": "[5]; FLIN, NVAR, CORR2, titration 10−6 M to 10−11 M", "result": "≈ 100 nM"}
    ]},
    {"smiles": "CC(C)(O)C(=O)Nc1ccc([N+](=O)[O-])c(C(F)(F)F)c1", "note": "[OHF, o-hydroxyflutamide]", "values": [
      {"measurement": "concentration at which agonist effect / activation of the T877A mutant is observed", "setting": "[1]; compound alone", "result": "75 to 85", "unit": "nM"},
      {"measurement": "effect on the cell cycle (in words)", "setting": "[3]; 18 hr treatment", "result": "did not have any appreciable effect on the cell cycle"},
      {"measurement": "induction of transcriptional reporter gene activity (in words)", "setting": "[6]; compound alone", "result": "no significant hyperspeckling or induction of transcription"},
      {"measurement": "induction of nuclear hyperspeckling (in words)", "setting": "[7]; compound alone", "result": "no significant hyperspeckling"}
    ]},
    {"smiles": "CC(C)(C)CC(C)(C)c1ccc(O)cc1", "note": "[Octophenol]", "values": [
      {"measurement": "response on any of the three parameters measured (in words)", "setting": "[5]; compound alone", "result": "did not yield a significant response"},
      {"measurement": "response on any of the three parameters / AR antagonistic activity (in words)", "setting": "[5]; with 10 nM R1881 (competition)", "result": "did not yield a significant response"}
    ]},
    {"smiles": "CC(C)=CC(=O)O[C@H]1Cc2cc3ccc(=O)oc3cc2OC1(C)C", "note": "[Decursin]", "values": [
      {"measurement": "IC50", "setting": "[6]", "result": "10.6 ± 0.865", "unit": "µM"},
      {"measurement": "decrease in transcriptional reporter gene activity (dsRED2skl reporter signal)", "setting": "[6]; with 10 nM R1881", "result": 45, "unit": "%"},
      {"measurement": "EC50", "setting": "[4]", "result": "0.853 ± 0.0884", "unit": "µM"},
      {"measurement": "IC50", "setting": "[4]", "result": "13.2 ± 0.152", "unit": "µM"},
      {"measurement": "decrease in R1881-induced nuclear translocation", "setting": "[4]; with 10 nM R1881", "result": 95, "unit": "%"},
      {"measurement": "IC50", "setting": "[7]", "result": "12.3 ± 0.43", "unit": "µM"},
      {"measurement": "reduction/loss of agonist-induced hyperspeckling (NVAR)", "setting": "[7]; with 10 nM R1881", "result": 94, "unit": "%"}
    ]}
  ]
}
